# Laboratory results from patent US8618068B2, “Methods and low dose regimens for treating red blood cell disorders” (priority 2009, dated 2013).
# “Also recorded” adds a separate entry of the source.
# Experiments:
# [1] = Cardiovascular and hemodynamic effects, 28-Day Beagle dog study; assay type: in vivo, Beagle dogs
# Method: Cardiovascular safety pharmacology assessments included an in vitro screen to evaluate the effects of DMB on cardiac ion channel and an in vivo evaluation of cardiovascular and hemodynamic effects in Beagle dogs. Electrophysiologic effects were evaluated in laboratory studies utilizing voltage-clamped human embryonic kidney cells transformed by adenovirus cDNA and transfected with cDNA in order to stably express the human ether a-go-go related gene (hERG). The effect on cellular hERG channels was evaluated at DMB concentrations up to 1 mM (138 μg/mL).
# in vivo = assay: in vivo; design: species or system Beagle dogs; settings: dog
# Text: Completed toxicology studies conducted with DMB include a single-dose toxicity study in Sprague-Dawley rats, escalating dose toxicity study in Beagle dogs, a repeat dose study of 14-Day duration in Sprague-Dawley rats and repeat-dose toxicity studies of 28-Day duration in Sprague-Dawley rats and Beagle dogs, and 26-Week studies in Sprague-Dawley rats and Beagle dogs. […] Reproductive toxicity studies include two dose-range finding studies, one in Sprague-Dawley rats, the other in New Zealand white rabbits. DMB was administered once a day (QD) orally via gavage; doses are expressed as the sodium salt. In addition, an array of genotoxicity studies were conducted with DMB.
# Based on the results of this study, the NOEL for DMB in male and female Beagle dogs was 50 mg/kg/day; and the NOAEL for DMB in male and female Beagle dogs was at least 300 mg/kg/day, the highest dose administered over the 26-Week treatment period.
# [2] = tested on: micronucleated erythrocytes (PCEs); settings: rat, in vivo
# Method: The potential for DMB to induce formation of micronuclei in vivo was evaluated as part of the initial 14-Day toxicity repeat dose toxicity study in rats administered doses of 0, 200, 600 and 1,000 mg/kg/day for 14 days.
# [3] = Phase 1 single dose clinical study, safety; assay type: in vivo, human
# Method: The first clinical study was a phase 1, double-blind, placebo-controlled, single dose study of the tolerability, safety and pharmacokinetics of DMB in 32 healthy volunteers. Healthy, fasting adult volunteers received single oral doses of DMB or placebo capsules at one of four dose levels (2 mg/kg, 5 mg/kg, 10 mg/kg and 20 mg/kg). Six subjects received study drug (24 subjects total) and 2 subjects received placebo at each dose level. The 8 placebo subjects received a capsule containing only the excipients from the capsules containing the active agent. Subjects at the 20 mg/kg also received a second dose of study drug after a defined meal, one week following the fasting dose.
# Physical examinations, vital signs and neurologic examinations were normal throughout the study. No signs or symptoms of clinical significance were observed. One subject developed transient mild hypotension after dosing, which was clinically asymptomatic, and the Principal Investigator considered this finding to be of no clinical significance. Postural changes in blood pressure and pulse were not evaluated. There were 3 electrocardiogram abnormalities among patients treated with active study medication and 3 among the placebo subjects, all of which were considered to be of no clinical significance. All laboratory studies, including chemistries, coagulation studies, hematology studies and urinalyses were either normal or of no clinical significance except for one subject in whom a urinary tract infection was diagnosed but not disclosed prior to study test article administration. The data are reported for each cohort including the N of subjects that received placebo or study drug. All events were assessed as mild by the Principal Investigator. The reported AEs are shown by Cohort following Table 10. The only AEs considered possibly or probably related to study medication included upper abdominal pain, which occurred in one subject in the 2 mg/kg treatment group, one subject with dizziness in the placebo treatment group, and one subject with dysphoria in the 10 mg/kg treatment group. No subjects discontinued treatment due to AEs and there were no SAEs reported in this study.
# clinical = settings: human, in vivo
# Method: Patients were monitored every 2 weeks for laboratory studies, physical examinations, and adverse events. Further, patients were followed for hematologic parameters primarily focusing on hemoglobin and fetal hemoglobin (HbF). In addition, pharmacokinetic samples were obtained on Day 0 and 13, at pre-dose and 2, 4, 6, 8, 12, and 24 hours post-dosing. Hemoglobin was measured at each site using standard hematology equipment. HbF was measured using Varian HPLC. […] Adverse events in treated subjects included headache, upper respiratory infection, pyrexia, fatigue, nausea, and dizziness, but the rates of such events were not markedly different from those observed in the placebo-treated subjects.
# A noncompartmental PK analysis was conducted using steady state concentration-time data for Day 13.
# [4] = Phase 2 trial in sickle cell disease patients, safety; assay type: in vivo, human; settings: 10, 20, 30 mg/kg/day
# Method: A randomized, blinded dose-ranging Phase 1/2 clinical trial was performed in 24 US and Jamaican adult patients with sickle cell disease (including HbSS or S/β thalassemia). DMB was administered once daily for six week cycles of daily therapy with a 2 week treatment break between two cycles, then followed by a final 4 weeks without treatment. Three dose levels (10, 20, 30 mg/kg/day) were studied sequentially. Four out of 24 subjects were treated with placebo and 21 subjects were evaluable. Seven Patients (5 active/2 placebo) at 10 mg/kg, 6 patients (5 active/1 placebo) at 20 mg/kg, and 9 patients (7 active/1 placebo) at 30 mg/kg were randomized in the study. Patients ranged in age from 14 to 56 with a median age of 31 and were comprised of […]. Patients were followed for hematologic parameters focusing on fetal hemoglobin (HbF). HbF was measured by a Waters Empower 32 HPLC system with a Synchropak CM-300 column.
smiles,measurement,setting,value
"CCC(C)(C)C(=O)[O-].[Na+] [DMB, Sodium 2,2-dimethylbutyrate]","QTc prolongation, average","[1]; 500 mg/kg/day, female Beagle dogs only, not statistically different from baseline (p>0.05)",14%
same,effects on systemic hemodynamics,[1]; 28-Day study,No effects
same,NOAEL at 26 weeks,"in vivo; both sexes, Beagle",≥ 300 mg/kg/day
same,NOEL,"in vivo; both, Beagle, 26 weeks",50 mg/kg/day
same,adverse effects,in vivo,no adverse effects
same,clinical observations,in vivo,no important treatment-related clinical observations
same,effects on ECG measurements,in vivo,No biologically significant effects
same,plasma levels of DMB at which micronucleus activity occurred,"[2]; male, Sprague Dawley",exceeding 500 μg/mL
same,"micronucleated PCEs, mean","[2]; male, Sprague Dawley, 14 days","3.3±0.16 MN PCEs/1,000 PCEs"
same,frequency of micronucleated erythrocytes (PCEs) compared to controls,[2],statistically significant increase
same,increase in micronucleated PCEs in female groups,[2],not observed
same,percent PCEs,[2],no effect
same,potential to cause genotoxicity (weight of evidence),[2],limited potential to cause genotoxicity
same,"Subject incidence of Abdominal pain, upper",[3]; DMB N = 24,4%
same,Subject incidence of Abdominal tenderness,[3]; DMB N = 24,4%
same,Subject incidence of Cough,[3]; DMB N = 24,4%
same,Subject incidence of Diarrhea,[3]; DMB N = 24,8%
same,Subject incidence of Dizziness,[3]; DMB N = 24,13%
same,Subject incidence of Dysguesia,[3]; DMB N = 24,4%
same,Subject incidence of Dysphoria,[3]; DMB N = 24,4%
same,Subject incidence of Ecchymosis,[3]; DMB N = 24,4%
same,Subject incidence of Epistaxis,[3]; DMB N = 24,4%
same,Subject incidence of Fatigue,[3]; DMB N = 24,4%
same,Subject incidence of Headache,[3]; DMB N = 24,29%
same,Subject incidence of Insomnia,[3]; DMB N = 24,4%
same,Subject incidence of Myalgia,[3]; DMB N = 24,4%
same,Subject incidence of Nausea,[3]; DMB N = 24,8%
same,Subject incidence of Odynophagia,[3]; DMB N = 24,4%
same,Subject incidence of Palpitations,[3]; DMB N = 24,4%
same,Subject incidence of Syncope vasovagal,[3]; DMB N = 24,4%
same,Subject incidence of URI,[3]; DMB N = 24,8%
same,Subject incidence of Vessel puncture site hematoma,[3]; DMB N = 24,17%
same,electrocardiogram abnormalities among patients treated with active study medication,[3]; considered of no clinical significance,3
same,SAEs reported,[3]; single doses 2 to 20 mg/kg,no SAEs
same,clinically significant adverse events,[3]; single doses 2 to 20 mg/kg,no clinically significant adverse events; also recorded: no significant AEs
same,Tmax,clinical,2.5 to 3.1 h
same,half-life,clinical; 10 mg/kg,12.1 h
same,half-life,clinical; 40 mg/kg,10.3 h
same,tolerability,[4],well tolerated
